Assay results reported in patent publication US20040121965A1, “Method of treating resistant tumors” (Wyeth Holdings Corporation, priority 2002, published 2004).
Like-named read-outs stand apart in the source and are kept apart here.

Assays:
SK-Mel-2 = experiment: Cell survival assay (SRB), SK-Mel-2; assay type: cell-based; settings: Homo sapiens, 72 h; SK-Mel-2, melanoma; 3 days, SRB staining; read-out: IC50
Protocol: (§1) 2.2. Cell Survival Assay: Standard Pharmacological Test Procedure. […] Compounds are incubated with cells for 3 days.

tumor cell lines = experiment: cells; assay type: cell-based
Method in brief: (§2)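 Cells were exposed to serially diluted compound in duplicate for 3 days. Survival was read as protein content by SRB (TCA fixation 1 hr at 4 °C, 0.04% SRB stain, dissolved in 10 mM Tris, absorbance). KB-3-1 was grown in 20% FCS. IC50 is the concentration giving 50% growth inhibition.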

S1-M1-3.2 (MXR) = experiment: Cell survival assay, S1-M1-3.2 (MXR); assay type: cell-based, human; settings: Homo sapiens; S1-M1-3.2, MXR over-expression; Table 5; read-out: S1-M1-3.2 (MXR) IC50, nM (N)
From the text: (§3) Cells lines with previously known mechanisms of resistance. […] Res. 8: 207-218,1996); KB-3-1 (parental derived from an epidermoid carcinoma), KB-8.5, KB-V1 (Akiyama S-I, Fojo A, Hanover J A, Pastan I, Gottesman M M. Isolation and genetic characterization of human KB cell lines resistant to multiple drugs. Somatic Cell Mol. Gen., 11: 117-126,1985; Shen D-W, Cardarelli C, Hwang J, Cornwell M, Richert N, Ishii S, Pastan I, Gottesman MM. […] J. Biol. Chem., 261: 7762-7770, 1986); and HL-60 (parental derived from human leukemia) and HL60/AR (McGrath T., Center M. S. Adriamycin resistance in HL60 cells in the absence of detectable P-glycoprotein. Biochem. Res. Commun., 145:1171-1176,1987); A549 and A549.EpoB40 (He L., Yang C.-P.H., Horwitz S. B. Mutations in p-tubulin map to domains involved in regulation of microtubule stability in epothilone-resistant cell lines. Molecular Cancer Therapeutics. 1: 3-10, 2001). HCT-15 human colon carcinoma and DLD-1 human colon carcinoma are obtained from American Tissue Culture Collection. The MX-1W carcinoma is a Wyeth variant orginally obtained as MX-1 breast carcinoma from the National Cancer Institute. Cell lines selected for resistance to Representative Example 129. KB-3-1 cells are selected for resistance to Example 129 by chronically exposing cells to increasing concentrations of Example 129.
(§4) 2.2. Cell Survival Assay: Standard Pharmacological Test Procedure. The concentration of candidate inhibitor required to inhibit 50% of cell growth (IC50) is done according to previously reported methods. […] Compounds are serially diluted into media as 2× stocks and 100 μl added to cells in duplicate. Compounds are incubated with cells for 3 days. At the end of the incubation period the sulforhodamine B (SRB) assay, which measures protein content as an assessment of cell survival, is performed as described previously (Skehan P, Storeng R, Scudiero D, Monks A, McMahon J, Vistica D, Warren J T, Bokesch H, Kenney S, Boyd MR. New calorimetric cytotoxicity assay for anticancer-drug screening. J Natl Cancer Inst 1990 Jul 4;82(13):1107-12) with some modification as follows. For KB-3-1 cells with 20% FCS, media is gently decanted and replaced with 200 μl of serum-free media mixed with cold 50% TCA for a final concentration of 10% TCA. The plates are incubated for 1 hr at 4° C., followed by washing 5 times in cold distilled water, then air dried overnight. The fixed cells are stained for 10 min with 80 μl of 0.04% SRB solution prepared in 1% glacial acetic acid. Stain is discarded and plates washed 5 times in 1% glacial acetic acid, then air-dried until completely dry. Stained cell product is dissolved in 150 μl of 10 mM Trizma Base and placed on a shaker for 20 minutes until fully dissolved. Absorbance is read on a Victor V multi-label plate reader (Perkin Elmer, Gaithersburg, Md.).
(§5) J. Cell Science,113: 2011-2021, 2000). It was unknown whether the hemiasterlin family of peptides interact with these drug pumps.

KB-V1 (MDR1++) = experiment: Cell survival assay (SRB), KB-V1 (MDR1++); settings: Homo sapiens
KB-3-1 = experiment: Cell survival assay (SRB), KB-3-1; assay type: cell-based, human; settings: Homo sapiens
Method in brief: as §2

1A9 = experiment: Cell survival assay (SRB), 1A9; assay type: cell-based; settings: Homo sapiens, 72 h; 1A9, ovarian; 3 days, SRB staining; read-out: IC50
Protocol: as §1

HL60/AR (MRP1) = experiment: Cell survival assay, HL60/AR (MRP1); settings: Homo sapiens, HL-60/AR, read-out: HL60/AR (MRP1) IC50, nM (N)
From the text: as §3, §4, §5

DLD-1 = experiment: Cell survival assay (SRB), DLD-1; assay type: cell-based; settings: Homo sapiens, DLD-1, 72 h, 3 days
From the text: as §3, §4

MX-1W tumor = experiment: Growth of tumors in nude mice, MX-1W xenograft; assay type: in vivo
From the text: 2.4. Growth of Tumors in Nude Mice.

NCI-H1299 = experiment: Cell survival assay (SRB), NCI-H1299; assay type: cell-based; settings: Homo sapiens, 72 h; NCI-H1299, NSCLC; 3 days, SRB staining; read-out: IC50
Protocol: as §1

HCT-116 = experiment: Cell survival assay (SRB), HCT-116; assay type: cell-based; settings: Homo sapiens, 72 h; HCT-116, colon; 3 days, SRB staining; read-out: IC50
Protocol: as §1

MX-1W = experiment: Cell survival assay (SRB), MX-1W; assay type: cell-based; settings: Homo sapiens, MX1W, 72 h, MX-1W, 3 days
From the text: as §3, §4

KM20 = experiment: Cell survival assay (SRB), KM20; assay type: cell-based; settings: 72 h; KM20, colon; 3 days, SRB staining; read-out: IC50
Protocol: as §1

[1] = MX-1W, paclitaxel 60 mg/kg IV, days 1,5,9

CC(=O)O[C@H]1C(=O)[C@@]2(C)[C@H]([C@H](OC(=O)c3ccccc3)[C@]3(O)C[C@H](OC(=O)[C@H](O)[C@@H](NC(=O)c4ccccc4)c4ccccc4)C(C)=C1C3(C)C)[C@]1(OC(C)=O)CO[C@@H]1C[C@@H]2O [paclitaxel, reference compound]
IC50 (SK-Mel-2): 3.2 ± 1.8 nM
IC50 (tumor cell lines; 34 tumor cell lines (Example 129), N=31 cell lines (paclitaxel), read-out: mean IC50): 80.2 nM
IC50 (tumor cell lines; 34 tumor cell lines (Example 129), N=31 cell lines (paclitaxel), read-out: median IC50): 9 nM
IC50 (tumor cell lines; 34 tumor cell lines (Example 129), N=31 cell lines (paclitaxel), read-out: range of IC50): 1.8 to 1590 nM
IC50 (tumor cell lines; 72 h, average over the panel of tumor cell lines of Table 1, 3 days, read-out: AVERAGE IC50): 80.2 nM
resistance detected in cells over-expressing MRP1 or MXR (tumor cell lines; HL60/AR (MRP1) or S1-M1-3.2 (MXR)): no resistance
IC50 (tumor cell lines; MX-1W, NCI-H1299, DLD-1, HCT-15, read-out: IC50 in cell lines expressing moderate to very high MDR1): 15 to 438 nM
IC50 (tumor cell lines; NCI-H838, A549, HT-29, HCT-116, KB-3-1, read-out: IC50 in cell lines with undetectable or low level MDR1): 3.9 to 8.8 nM
IC50 (S1-M1-3.2 (MXR)): 108 ± 88 nM
IC50 (KB-V1 (MDR1++); 72 h, KB-V1, 3 days, SRB, vehicle (DMSO), no MDR-1 inhibitor, mean of two experiments): > 3000 nM
IC50 (KB-V1 (MDR1++); 72 h, read-out: IC50 + 5.0 uM MDR-1 inhibitor, KB-V1, 3 days, SRB, + 5.0 uM MDR-1 inhibitor (heptanenitrile), mean of two experiments): 15 nM
IC50 (KB-V1 (MDR1++); read-out: KB-V1 (MDR1++) IC50, nM (N), KB-V1, high MDR1 expression, Table 3): 5480 ± 2780 nM
IC50 (KB-3-1; KB 3-1, 72 h, KB-3-1, epidermoid, 3 days, SRB staining, read-out: IC50): 3.9 ± 1.8 nM
IC50 (KB-3-1; KB 3-1, 72 h, KB-3-1, 3 days, SRB, + 5.0 uM MDR-1 inhibitor (heptanenitrile), mean of two experiments, read-out: IC50 + 5.0 uM MDR-1 inhibitor): 2.1 nM
IC50 (KB-3-1; KB 3-1, 72 h, KB-3-1, 3 days, SRB, vehicle (DMSO), no MDR-1 inhibitor, mean of two experiments, read-out: IC50): 2.2 nM
IC50 (KB-3-1; KB 3-1, 72 h, amount of drug needed to kill 50% of cells after three days continuous exposure, Table 11, read-out: IC50 in parental cell line KB-3-1): 3.9 nM
IC50 (KB-3-1; KB 3-1, KB-3-1, Table 6, read-out: KB-3-1 IC50): 2.74 ± 0.39 nM
IC50 (KB-3-1; KB 3-1, KB-3-1 parental, Table 3, read-out: KB-3-1 IC50, nM (N)): 3.9 ± 1.8 nM
IC50 (KB-3-1; KB 3-1, KB-3-1 parental, Table 8, read-out: KB-3-1 IC50): 2.66 ± 0.92 nM
IC50 (1A9): 5.1 ± 0.9 nM
IC50 (HL60/AR (MRP1)): 5.2 nM
IC50 (DLD-1; DLD-1, colon, SRB staining, read-out: IC50): 30.8 ± 12.7 nM
IC50 (DLD-1; DLD-1, SRB, + 5.0 uM MDR-1 inhibitor (heptanenitrile of Table 2), read-out: IC50 + 5.0 uM MDR-1 inhibitor): 3.8 nM
IC50 (DLD-1; DLD-1, SRB, vehicle control (DMSO), no MDR-1 inhibitor, read-out: IC50): 21.8 nM
% T/C on day 7 (MX-1W tumor; [1]): 76%
% T/C on day 14 (MX-1W tumor; [1]): 77%
Activity in nude mice animal model (% T/C @ MTD on days 11-15) MX-1W (MX-1W tumor; staged MX-1W xenograft, at MTD, days 11-15): 73%
IC50 (NCI-H1299): 37.7 ± 12.6 nM
IC50 (HCT-116): 4.5 nM
IC50 (MX-1W; breast, SRB staining, read-out: IC50): 15.4 ± 2.9 nM
IC50 (MX-1W; SRB, + 5.0 uM 7-(6,7-dimethoxy-3,4-dihydro-1H-isoquinolin-2-yl)-2(3,4-dimethoxy-phenyl)-2-p-tolysulfanyl-heptanenitrile, read-out: IC50 + 5.0 uM MDR-1 inhibitor): 8.3 nM
IC50 (MX-1W; SRB, vehicle control (DMSO), no MDR-1 inhibitor, read-out: IC50): 138 nM
IC50 (KM20): 8.9 ± 1.9 nM
